Values quoted from earlier work as cited in JP2011132186A, “ホルモン不応性前立腺癌治療法及び治療効果予測方法” (University of Tokushima NUC, priority 2009, dated 2011).

Test system: hormone-refractory prostate cancer [ホルモン不応性前立腺癌]
Conditions: large phase III comparative trial in Europe and USA

Structure (SMILES)	median survival time (OS)
CC(=O)O[C@@]12CO[C@@H]1C[C@H](O)[C@@]1(C)C(=O)[C@H](O)C3=C(C)[C@@H](OC(=O)[C@H](O)[C@@H](NC(=O)OC(C)(C)C)c4ccccc4)C[C@@](O)([C@@H](OC(=O)c4ccccc4)[C@H]21)C3(C)C [ドセタキセル]	18.9 months
O=C1c2c(O)ccc(O)c2C(=O)c2c(NCCNCCO)ccc(NCCNCCO)c21 [ミトキサントロン]	16.5 months
